Laboratory results from the NIST ThermoML archive (doi:10.1016/j.jct.2019.06.009).
Numbers after ± are expanded uncertainties.

What was measured:
[1] = Molar enthalpy of transition or fusion; settings: Crystal; DSC
[2] = Crystal; DSC

With `C=NCC#N` [methyleneaminoacetonitrile] the “Molar enthalpy of transition or fusion” value [1] was 2.53 ± 0.239 kcal/mol and the Triple point temperature [2] was 400.19 ± 2.1 K.
